pEC50: −log10 of the molar value. Where two headings read alike, the source gives them in different places. Starred links: 1 amine or outer side, 2 acyl side, 3 side chain; linkers in the order of their positions; H or OH if unused. Non-standard residues stand in square brackets, D forms with d. Groups on a side chain read outwards from the residue. No end group written: not given here. *: point of attachment. C20 diacid = O=C(O)CCCCCCCCCCCCCCCCCCC(=O)*; C18 diacid = O=C(O)CCCCCCCCCCCCCCCCC(=O)*; Phe(4-CN) = N#Cc1ccc(C[C@H](N)C(=O)O)cc1; αMePhe(2-F) = C[C@](N)(Cc1ccccc1F)C(=O)O; γGlu = O=C(O)[C@H](CCC(=O)[*:2])N[*:1]; αMe4Pal = C[C@](N)(Cc1ccncc1)C(=O)O; αMeY = C[C@](N)(Cc1ccc(O)cc1)C(=O)O; 4Pal = N[C@@H](Cc1ccncc1)C(=O)O; αMeL = CC(C)C[C@](C)(N)C(=O)O; αMeS = C[C@](N)(CO)C(=O)O; Orn = NCCC[C@H](N)C(=O)O; Dab = NCC[C@H](N)C(=O)O; AEEA = NCCOCCOCC(=O)O; Aib = CC(C)(N)C(=O)O

The text below walks through data of patent US20240270821A1, “GIP/GLP1/GCG TRI-RECEPTOR AGONISTS AND USES THEREOF” (priority 2023, published 2024).

Holding throughout (assay type): cell-based
Experiment [1] concerns the target T1, hGIPR (Homo sapiens, UniProt P48546).
T1 sequence (P48546 22-466): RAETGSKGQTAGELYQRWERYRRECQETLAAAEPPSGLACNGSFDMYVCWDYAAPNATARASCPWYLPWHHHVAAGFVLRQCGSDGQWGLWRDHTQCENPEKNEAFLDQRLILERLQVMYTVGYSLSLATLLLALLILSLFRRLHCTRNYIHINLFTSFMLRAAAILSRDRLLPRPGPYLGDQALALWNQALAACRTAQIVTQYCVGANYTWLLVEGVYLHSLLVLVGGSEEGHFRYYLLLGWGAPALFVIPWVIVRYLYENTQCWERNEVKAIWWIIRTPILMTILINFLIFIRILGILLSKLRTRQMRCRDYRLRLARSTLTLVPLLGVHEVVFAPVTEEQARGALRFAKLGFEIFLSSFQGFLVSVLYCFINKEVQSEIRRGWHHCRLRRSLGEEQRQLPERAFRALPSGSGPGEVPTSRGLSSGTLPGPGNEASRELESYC
The experiment can be described thus: Functional cAMP activity in the presence of 1% HSA. The note with it: read-out: cAMP Rel EC50, hGIPR.

In experiment [2] the target is T2, hGLP-1R (Homo sapiens, UniProt P43220). The experiment can be described thus: Functional cAMP activity in the presence of 1% HSA. The note with it: read-out: cAMP Rel EC50, hGLP-1R.
The target of a further experiment is human GcgR (Homo sapiens, UniProt P47871). The experiment can be described thus: Functional cAMP activity in the presence of 1% HSA. The note with it: read-out: cAMP Rel EC50, hGcgR.
The target of experiment [3] is T1, hGIPR. In words: Functional cAMP activation in the presence of 0.1% casein (no HSA). The note with it: read-out: Relative cAMP EC50, hGIPR.
Experiment [4] addresses T2, hGLP-1R. Described as above. The note with it: read-out: Relative cAMP EC50, hGLP-1R.
Another experiment addresses hGcgR (Homo sapiens, UniProt P47871). Described as above. The note with it: read-out: Relative cAMP EC50, hGcgR.
The mark [5] stands for this setting: in the presence of 0.1% casein (no HSA), geometric mean.
The mark [6] stands for this setting: HEK-293 clonal cell line, 1% HSA, geometric mean of relative EC50.
Where [7] appears, read: in the presence of 0.1% casein (no HSA), geometric mean of relative EC50.
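For Relative cAMP EC50, hGIPR in this document: intracellular cAMP rise after 30 min at 37 °C read by HTRF against a standard curve, scaled between buffer alone (0%) and top control ligand concentration (100%), four-parameter fit.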
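For Relative cAMP EC50, hGLP-1R in this document: intracellular cAMP rise after 30 min at 37 °C read by HTRF, normalized between buffer only (0%) and maximal control ligand (100%), four-parameter variable-slope fit.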
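For Relative cAMP EC50, hGcgR in this document: intracellular cAMP rise after 30 min at 37 °C, read by HTRF against a cAMP standard curve, scaled from buffer only (0%) to maximal control ligand response (100%).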

hGcgR, sequence (P47871 26-477): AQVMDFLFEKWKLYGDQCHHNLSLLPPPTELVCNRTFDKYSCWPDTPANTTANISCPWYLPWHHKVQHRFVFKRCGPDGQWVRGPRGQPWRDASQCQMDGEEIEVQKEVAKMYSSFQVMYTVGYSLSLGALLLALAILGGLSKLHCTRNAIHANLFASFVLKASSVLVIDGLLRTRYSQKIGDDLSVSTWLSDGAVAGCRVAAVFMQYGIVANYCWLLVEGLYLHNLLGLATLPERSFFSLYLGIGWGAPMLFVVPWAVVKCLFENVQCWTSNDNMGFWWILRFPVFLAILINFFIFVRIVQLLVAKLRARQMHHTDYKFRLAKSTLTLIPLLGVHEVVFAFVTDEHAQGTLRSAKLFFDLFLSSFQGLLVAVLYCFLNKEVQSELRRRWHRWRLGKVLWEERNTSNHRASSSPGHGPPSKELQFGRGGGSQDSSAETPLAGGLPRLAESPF
human GcgR, sequence (P47871 26-477): as above
T2 sequence (P43220 24-463): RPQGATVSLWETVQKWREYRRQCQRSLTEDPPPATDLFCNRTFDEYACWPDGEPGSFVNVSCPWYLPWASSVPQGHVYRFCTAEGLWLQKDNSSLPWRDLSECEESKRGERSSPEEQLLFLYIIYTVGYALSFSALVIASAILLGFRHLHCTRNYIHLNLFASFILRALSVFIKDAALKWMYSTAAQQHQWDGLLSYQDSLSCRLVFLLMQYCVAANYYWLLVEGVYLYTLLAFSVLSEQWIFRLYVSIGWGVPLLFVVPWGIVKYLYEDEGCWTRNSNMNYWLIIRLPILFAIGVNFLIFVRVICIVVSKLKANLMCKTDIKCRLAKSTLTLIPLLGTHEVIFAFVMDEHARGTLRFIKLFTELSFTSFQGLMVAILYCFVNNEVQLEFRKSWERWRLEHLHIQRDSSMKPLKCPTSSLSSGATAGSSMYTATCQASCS

Regarding “H-Y[Aib]QGT[αMePhe(2-F)]TSD[Phe(4-CN)]SILLDKQAQK([AEEA-AEEA-γGlu-C20 diacid])AFIQYLLEGGPSSGEPPPSEG-NH2 [Example 353]”, the pEC50 – broadly, −log10 of the EC50, conventionally taken in molar units – at hGIPR [1] was 7.27; at hGLP-1R [2], 6.65; at human GcgR, 5.51; on hGIPR [3] (setting [5]), 9.90; at hGLP-1R [4] (setting [5]) it was 9.20; on hGcgR (setting [5]), 7.96.

On to “H-Y[Aib]QGTFTSD[4Pal]S[Orn][αMeL]LDKK([γGlu-γGlu-C18 diacid])AQ[αMe4Pal]AFIE[αMeY]LIAGGPSSGEPPPSGS-NH2 [Example 1014]”, for which the pEC50 on hGIPR [1] was 8.25; on hGLP-1R [2], 7.06; at human GcgR it was 6.56; at hGIPR [3] (setting [5]), 10.39; at hGLP-1R [4] (setting [5]), 9.14; at hGcgR (setting [5]) it was 8.44.

In the case of “H-Y[Aib]QGT[αMePhe(2-F)]TSD[4Pal][αMeS]I[αMeL]LD[Orn]K([AEEA-γGlu-C18 diacid])AQ[αMe4Pal]EFI[dE][αMeY]LVEGGPSSGEPPPGGE-NH2 [Example 1155]”, the pEC50 is 9.05 on hGIPR [1]; 7.35 at hGLP-1R [2]; 6.54 at human GcgR; 11.04 on hGIPR [3] (setting [5]); 9.36 at hGLP-1R [4] (setting [5]); 8.74 at hGcgR (setting [5]).

`CC[C@H](C)[C@H](NC(=O)[C@H](CC(C)C)NC(=O)[C@](C)(Cc1ccc(O)cc1)NC(=O)[C@@H](CCC(=O)O)NC(=O)[C@@H](NC(=O)[C@H](Cc1ccccc1)NC(=O)[C@H](CCC(=O)O)NC(=O)C(C)(C)NC(=O)[C@H](C)NC(=O)[C@H](C)NC(=O)[C@H](CCCCNC(=O)COCCOCCNC(=O)CC[C@H](NC(=O)CCCCCCCCCCCCCCCCC(=O)O)C(=O)O)NC(=O)[C@H](CCCN)NC(=O)[C@H](CC(=O)O)NC(=O)[C@H](CC(C)C)NC(=O)[C@](C)(CC(C)C)NC(=O)[C@@H](NC(=O)[C@](C)(CO)NC(=O)[C@H](Cc1ccncc1)NC(=O)[C@H](CC(=O)O)NC(=O)[C@H](CO)NC(=O)[C@@H](NC(=O)[C@](C)(Cc1ccccc1F)NC(=O)[C@@H](NC(=O)CNC(=O)[C@H](CCC(N)=O)NC(=O)C(C)(C)NC(=O)[C@@H](N)Cc1ccc(O)cc1)[C@@H](C)O)[C@@H](C)O)[C@@H](C)CC)[C@@H](C)CC)C(=O)N[C@@H](CCC(=O)O)C(=O)NCC(=O)NCC(=O)N1CCC[C@H]1C(=O)N[C@@H](CO)C(=O)N[C@@H](CO)C(=O)NCC(=O)N[C@@H](CCC(=O)O)C(=O)N1CCC[C@H]1C(=O)N1CCC[C@H]1C(=O)N1CCC[C@H]1C(=O)N[C@@H](CO)C(=O)NCC(=O)N[C@@H](CO)C(=O)N[C@H](CCC(=O)O)C(N)=O` [Example 720]: the pEC50 at hGIPR [1] (setting [6]) is 8.99; at hGLP-1R [2] (setting [6]) it was 7.55; on human GcgR (setting [6]), 6.62; on hGIPR [3] (setting [7]), 10.99; on hGLP-1R [4] (setting [7]), 9.61; on hGcgR (setting [7]) it was 8.75.

“H-Y[Aib]QGT[αMePhe(2-F)]TSD[4Pal][αMeS]I[αMeL]LD[Orn]K([AEEA-γGlu-C18 diacid])AQ[αMe4Pal]EFI[dE][αMeY]LVEGGPSSGEPPPSGSEE-NH2 [Example 736]”: the pEC50 was 8.91 on hGIPR [1]; 7.33 at hGLP-1R [2]; 6.61 on human GcgR; 10.85 at hGIPR [3]; 9.31 at hGLP-1R [4]; 8.55 at hGcgR.

For the compound “H-Y[Aib]QGT[αMePhe(2-F)]TSD[4Pal][αMeS]I[αMeL]LD[Orn]K([AEEA-γGlu-C18 diacid])AQ[αMe4Pal]EFI[dE][αMeY]LVEGGPSSGAPPPSGSE-NH2 [Example 751]”, the pEC50 on hGIPR [1] was 8.90; on hGLP-1R [2] it was 7.49; on human GcgR, 6.57; at hGIPR [3], 11.12; on hGLP-1R [4], 9.52; on hGcgR, 8.72.

As to `CC[C@H](C)[C@H](NC(=O)[C@H](Cc1ccccc1)NC(=O)[C@H](C)NC(=O)[C@](C)(Cc1ccncc1)NC(=O)[C@H](CCC(N)=O)NC(=O)[C@H](C)NC(=O)[C@H](CCCCNC(=O)CC[C@H](NC(=O)CC[C@H](NC(=O)CCCCCCCCCCCCCCCCC(=O)O)C(=O)O)C(=O)O)NC(=O)[C@H](CCCCN)NC(=O)[C@H](CC(=O)O)NC(=O)[C@H](CC(C)C)NC(=O)[C@](C)(CC(C)C)NC(=O)[C@H](CCC(N)=O)NC(=O)[C@H](CO)NC(=O)[C@H](Cc1ccncc1)NC(=O)[C@H](CC(=O)O)NC(=O)[C@H](CO)NC(=O)[C@@H](NC(=O)[C@H](Cc1ccccc1)NC(=O)[C@@H](NC(=O)CNC(=O)[C@H](CCC(N)=O)NC(=O)C(C)(C)NC(=O)[C@@H](N)Cc1ccc(O)cc1)[C@@H](C)O)[C@@H](C)O)C(=O)N[C@@H](CCC(=O)O)C(=O)N[C@@H](Cc1ccc(O)cc1)C(=O)N[C@@H](CC(C)C)C(=O)N[C@H](C(=O)N[C@@H](CCC(=O)O)C(=O)N[C@H](C)C(=O)NCC(=O)N1CCC[C@H]1C(=O)N[C@@H](CO)C(=O)N[C@@H](CO)C(=O)NCC(=O)N[C@@H](C)C(=O)N1CCC[C@H]1C(=O)N1CCC[C@H]1C(=O)N1CCC[C@H]1C(=O)N[C@@H](CO)C(=O)NCC(=O)N[C@@H](CO)C(=O)N[C@@H](CCC(=O)O)C(N)=O)[C@@H](C)CC` [Example 1025], the pEC50 on hGIPR [1] is 7.50; on hGLP-1R [2], 6.45; on human GcgR, 6.20; at hGIPR [3] (setting [5]), 9.74; on hGLP-1R [4] (setting [5]) it was 8.61; on hGcgR (setting [5]), 8.49.

“H-Y[Aib]QGTFTSDFS[Orn][αMeL]LDKK([AEEA-γGlu-C18 diacid])AQ[Aib]AFIEYLLAGGPSSGAPPPSGS[AEEA]-NH2 [Example 89]”: the pEC50 on hGIPR [1] is 7.71; at hGLP-1R [2], 6.34; at human GcgR, 6.04; on hGIPR [3] (setting [5]), 9.78; at hGLP-1R [4] (setting [5]), 8.48; on hGcgR (setting [5]), 7.94.

Turning to “H-Y[Aib]QGT[αMePhe(2-F)]TSDYSKLLDKIAQK([AEEA-γGlu-C20 diacid])[Orn]FIEWLIEGGPSSGEPPPSEG-NH2 [Example 310]”, the pEC50 on hGIPR [1] is 7.82; on hGLP-1R [2] it was 6.75; at human GcgR, 5.40; on hGIPR [3] (setting [5]), 10.03; at hGLP-1R [4] (setting [5]), 9.23; at hGcgR (setting [5]) it was 8.45.

For the compound `CC[C@H](C)[C@H](NC(=O)[C@H](CC(C)C)NC(=O)[C@](C)(Cc1ccc(O)cc1)NC(=O)[C@@H](CCC(=O)O)NC(=O)[C@@H](NC(=O)[C@H](Cc1ccccc1)NC(=O)[C@H](CCC(=O)O)NC(=O)C(C)(C)NC(=O)[C@H](C)NC(=O)[C@H](C)NC(=O)[C@H](CCCCNC(=O)COCCOCCNC(=O)CC[C@H](NC(=O)CCCCCCCCCCCCCCCCC(=O)O)C(=O)O)NC(=O)[C@H](CCCN)NC(=O)[C@H](CC(=O)O)NC(=O)[C@H](CC(C)C)NC(=O)[C@](C)(CC(C)C)NC(=O)[C@@H](NC(=O)[C@](C)(CO)NC(=O)[C@H](Cc1ccncc1)NC(=O)[C@H](CC(=O)O)NC(=O)[C@H](CO)NC(=O)[C@@H](NC(=O)[C@](C)(Cc1ccccc1F)NC(=O)[C@@H](NC(=O)CNC(=O)[C@H](CCC(N)=O)NC(=O)C(C)(C)NC(=O)[C@@H](N)Cc1ccc(O)cc1)[C@@H](C)O)[C@@H](C)O)[C@@H](C)CC)[C@@H](C)CC)C(=O)N[C@@H](CCC(=O)O)C(=O)NCC(=O)NCC(=O)N1CCC[C@H]1C(=O)N[C@@H](CO)C(=O)N[C@@H](CO)C(=O)NCC(=O)N[C@@H](CCC(=O)O)C(=O)N1CCC[C@H]1C(=O)N1CCC[C@H]1C(=O)N1CCC[C@H]1C(=O)N[C@@H](CO)C(=O)NCC(=O)N[C@@H](CO)C(N)=O` [Example 707], the negative-log EC50 (pEC50) was 8.98 at hGIPR [1]; 7.51 on hGLP-1R [2]; 6.70 at human GcgR; 10.97 on hGIPR [3]; 9.61 at hGLP-1R [4]; 8.97 at hGcgR.

Turning to “Y[Aib]QGTFTSD[4Pal][αMeS]Q[αMeL]LD[Orn]K([dE-γGlu-C18 diacid])AQ[αMe4Pal]QFIQ[αMeY]LIEGGPSSGEPPPSGGGE-NH2 [Example 1188]”, the pEC50 was 8.15 on hGIPR [1]; 7.11 on hGLP-1R [2]; 6.89 at human GcgR; 10.04 on hGIPR [3] (setting [5]); 9.00 at hGLP-1R [4] (setting [5]); 8.94 at hGcgR (setting [5]).

As to “H-Y[Aib]QGTFTSDFS[Dab][αMeL]LDKK([AEEA-γGlu-C18 diacid])AQ[Aib]AFIEYLIE[Aib]GPSSGAPPPSGS-NH2 [Example 799]”, the pEC50 at hGIPR [1] is 7.74; at hGLP-1R [2] it was 6.75; on human GcgR, 6.24; on hGIPR [3] (setting [5]), 10.18; on hGLP-1R [4] (setting [5]) it was 9.34; on hGcgR (setting [5]), 8.79.
